Where “and” joins values, the source holds several entries; their conditions need not be identical. Identical values can stand only once.
Legend:
RFK module of CaFADS [1] = target: T1, RFK module of CaFADS (Corynebacterium ammoniagenes, UniProt Q59263, L183M); assay: Isothermal titration calorimetry of binary and ternary interactions; assay type: binding
T1 construct: a truncated CaFADS variant consisting in the isolated C-terminal RFK module; made in house; host or cells: E. coli BL21(DE3)
Description: Isothermal titration calorimetry (ITC) experiments were performed to elucidate the order in which ligands bind to the enzyme, as well as the binding inhibition effects from the thermodynamic point of view. Experiments were carried out in an AutoITC200 (MicroCal) that was thermostated at 25 °C. […] Titrations with FLV ligands of mixtures that contained the enzyme prebound with the ANP ligand were also carried out, as well as ANP titrations of mixtures of the enzyme saturated with FLV ligands. In these experiments, the titration was performed by stepwise injecting the titrating ligand. Up to 19 injections of 2 μL each were added to the calorimetric sample cell and mixed at a stirring speed of 1000 r.p.m. Ligands and protein were dissolved in 20 mM PIPES, pH 7.0, either in the presence or absence of 0.8 mM MgCl2, and degassed prior to titration. The association constant (K a), the enthalpy change (ΔH) and the binding stoichiometry (N) were obtained through a nonlinear least squares regression of the data using a homemade model for one or two independent binding sites, which was implemented in Origin 7.0 (OriginLab) as previously described, [20]. The entropic contribution (-TΔS), the Gibbs free energy (ΔG) and the dissociation constant (K d) were obtained through essential thermodynamic equations.
Experiments were performed in triplicate.

RFK module of CaFADS [2] = target: T1, RFK module of CaFADS; assay: Steady-state RFK activity (HPLC quantification of flavins); assay type: biochemical
Description: In all cases, reactions were initiated by addition of the enzyme to a final concentration of ≈40 nM, which was followed by 1 min of incubation, and the reactions were stopped by boiling the samples at 100 °C for 5 min as previously described, [20]. The flavin composition of the supernatant was analyzed using an Alliance HPLC system (Waters) equipped with a 2707 autosampler and an HSST3 column (4.6 × 50 mm, […]; Waters) preceded by a precolumn (4.6 × 20 mm, […]; Waters) as previously described, [20]. […] All the experiments were carried out in triplicate.
Additionally, Dixon plots (1/(v 0/[e]) vs [I]) and Cornish-Bowden representations ([S]/(v 0/[e]) vs [I]) were used to reveal the type of inhibition, [43].

[3] = Flavin photobleaching decay in the stopped-flow equipment; assay type: physicochemical
From the text: Due to the deterioration that flavins undergo when they are exposed to light, we also evaluated the FLV photobleaching decay during measurements.

[4] = initial mixture RFK:FMN, 0.0 mM MgCl2
[5] = initial mixture RFK:FMN, 0.8 mM MgCl2
[6] = initial mixture RFK:RF, 0.0 mM MgCl2
[7] = initial mixture RFK, 0.0 mM MgCl2
[8] = initial mixture RFK, 0.8 mM MgCl2
[9] = apparent, ATP varied, ~5 µM RF, [ADP] 20 μM
[10] = apparent, ATP varied, ~5 µM RF, [ADP] 50 μM
[11] = apparent, ATP varied, ~5 µM RF, [ADP] 90 μM
[12] = apparent, ATP varied, ~5 µM RF, [ADP] 170 μM
[13] = initial mixture RFK:ADP, 0.0 mM MgCl2
[14] = initial mixture RFK:ADP, 0.8 mM MgCl2
[15] = apparent, RF varied, saturating ATP, [FMN] 1 μM
[16] = apparent, RF varied, saturating ATP, [FMN] 2 μM
[17] = apparent, RF varied, saturating ATP, [FMN] 3 μM
[18] = apparent, RF varied, saturating ATP, [FMN] 5 μM

T1 sequence (Q59263 183-338 L183M): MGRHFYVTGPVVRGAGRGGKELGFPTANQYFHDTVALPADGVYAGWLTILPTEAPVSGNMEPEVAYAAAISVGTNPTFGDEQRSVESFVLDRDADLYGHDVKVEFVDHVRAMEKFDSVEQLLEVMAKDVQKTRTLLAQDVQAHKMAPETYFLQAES

Nc1ncnc2c1ncn2[C@@H]1O[C@H](COP(=O)(O)OP(=O)(O)OP(=O)(O)O)[C@@H](O)[C@H]1O [ATP]
-TΔS (RFK module of CaFADS [1]; [4]): 9.3 kcal/mol | ΔH (RFK module of CaFADS [1]; [4]): -17.9 kcal/mol | -TΔS (RFK module of CaFADS [1]; [5]): 9.3 kcal/mol | ΔH (RFK module of CaFADS [1]; [5]): -19.5 kcal/mol | -TΔS (RFK module of CaFADS [1]; [6]): 66.6 kcal/mol | ΔH (RFK module of CaFADS [1]; [6]): -72.5 kcal/mol | -TΔS (RFK module of CaFADS [1]; [7]): -1.0 kcal/mol | ΔH (RFK module of CaFADS [1]; [7]): -5.5 kcal/mol | -TΔS (RFK module of CaFADS [1]; [8]): -0.6 kcal/mol | ΔG (RFK module of CaFADS [1]; [8]): -6.1 kcal/mol | ΔH (RFK module of CaFADS [1]; [8]): -5.6 kcal/mol | KmATP (RFK module of CaFADS [2]; apparent, ATP varied, ~5 µM RF, [ADP] 0 μM, 25 °C, 0.8 mM MgCl2, pH 7.0): 60 ± 11 µM | k cat (RFK module of CaFADS [2]; apparent, ATP varied, ~5 µM RF, [ADP] 0 μM, 25 °C, 20 mM PIPES, 0.8 mM MgCl2, pH 7.0): 2.67 ± 0.167 s⁻¹ | KmATP (RFK module of CaFADS [2]; [9]): 110 ± 20 µM | k cat (RFK module of CaFADS [2]; [9]): 2.67 ± 0.167 s⁻¹ | KmATP (RFK module of CaFADS [2]; [10]): 140 ± 20 µM | k cat (RFK module of CaFADS [2]; [10]): 2.33 ± 0.167 s⁻¹ | KmATP (RFK module of CaFADS [2]; [11]): 260 ± 20 µM | k cat (RFK module of CaFADS [2]; [11]): 2.83 ± 0.167 s⁻¹ | KmATP (RFK module of CaFADS [2]; [12]): 700 ± 270 µM | k cat (RFK module of CaFADS [2]; [12]): 2.83 ± 1 s⁻¹ | k cat (RFK module of CaFADS [2]; global fit of Lineweaver-Burk equation, competitive inhibition by ADP, ATP varied, ~5 µM RF): 2.17 ± 0.5 s⁻¹ | KmATP (RFK module of CaFADS [2]; global fit of Lineweaver-Burk equation, competitive inhibition by ADP, ~5 µM RF): 40 ± 20 µM and 40 ± 12 µM

Cc1cc2nc3c(=O)[nH]c(=O)nc-3n(C[C@H](O)[C@H](O)[C@H](O)CO)c2cc1C [RF, riboflavin]
Kd (RFK module of CaFADS [1]; Kd, initial mixture RFK:ADP, 0.0 mM MgCl2): 14.5 µM | Kd (RFK module of CaFADS [1]; Kd, initial mixture RFK:ADP, 0.8 mM MgCl2): 2.3 µM | Kd (RFK module of CaFADS [1]; Kd, initial mixture RFK, 0.8 mM MgCl2, 20 mM PIPES, pH 7.0, 25 °C): 15.2 µM | -TΔS (RFK module of CaFADS [1]; [13]): 67.7 kcal/mol | ΔG (RFK module of CaFADS [1]; [13]): -6.6 kcal/mol | ΔH (RFK module of CaFADS [1]; [13]): -74.3 kcal/mol | -TΔS (RFK module of CaFADS [1]; [14]): 11.5 kcal/mol | ΔG (RFK module of CaFADS [1]; [14]): -7.6 kcal/mol | ΔH (RFK module of CaFADS [1]; [14]): -19.2 kcal/mol | Kd (RFK module of CaFADS [1]; initial mixture RFK:ATP, 0.0 mM MgCl2): does not bind | -TΔS (RFK module of CaFADS [1]; [7]): -0.9 kcal/mol | ΔG (RFK module of CaFADS [1]; [7]): -6.9 kcal/mol | ΔH (RFK module of CaFADS [1]; [7]): -5.9 kcal/mol | -TΔS (RFK module of CaFADS [1]; [8]): 4.1 kcal/mol | ΔG (RFK module of CaFADS [1]; [8]): -6.6 kcal/mol | ΔH (RFK module of CaFADS [1]; [8]): -10.6 kcal/mol | Ki (RFK module of CaFADS [2]): 1.9 ± 0.2 µM | KmRF (RFK module of CaFADS [2]; apparent, RF varied, saturating ATP, [FMN] 0 μM): 10 ± 2 µM | k cat (RFK module of CaFADS [2]; apparent, RF varied, saturating ATP, [FMN] 0 μM, substrate inhibition model, 25 °C, 0.8 mM MgCl2, pH 7.0): 7.33 ± 0.833 s⁻¹ | KmRF (RFK module of CaFADS [2]; [15]): 5.0 ± 1.1 µM | k cat (RFK module of CaFADS [2]; [15]): 4.67 ± 0.667 s⁻¹ | KmRF (RFK module of CaFADS [2]; [16]): 7.7 ± 1.4 µM | k cat (RFK module of CaFADS [2]; [16]): 4.5 ± 0.833 s⁻¹ | KmRF (RFK module of CaFADS [2]; [17]): 3.6 ± 0.9 µM | k cat (RFK module of CaFADS [2]; [17]): 2.33 ± 0.5 s⁻¹ | KmRF (RFK module of CaFADS [2]; [18]): 5.5 ± 2.1 µM | k cat (RFK module of CaFADS [2]; [18]): 2 ± 0.667 s⁻¹ | k cat (RFK module of CaFADS [2]; global fit of Lineweaver-Burk equation, uncompetitive inhibition by FMN, RF varied, saturating ATP): 5.33 ± 0.667 s⁻¹ and 5.33 ± 0.5 s⁻¹ | KmRF (RFK module of CaFADS [2]; global fit of Lineweaver-Burk equation, uncompetitive inhibition by FMN, saturating ATP): 6.9 ± 0.4 µM | photobleaching rate ([3]; flavin fluorescence decay during stopped-flow measurements, 25 °C, 0.8 mM MgCl2, pH 7.0): 0.0046 ± 0.00018 min⁻¹ | rate of slow linear fluorescence decay (photobleaching range) ([3]; flavin mixed with the RFK module without ANP, stopped-flow): 0.0045 ± 0.00012 min⁻¹

Reference: paper PMC5544777, “Kinetics and thermodynamics of the protein-ligand interactions in the riboflavin kinase activity of the FAD synthetase from Corynebacterium ammoniagenes” (Scientific Reports, 2017)
